As usually defined, the IC50 is the point on the concentration scale where inhibition reaches its midpoint.

The values below come from patent US20250353833A1, “DPP9 BINDING COMPOUNDS” (UNIVERSITEIT ANTWERPEN, priority 2022, published 2025).

Format in all cases: biochemical
Experiment [1] deals with DPP8 (Homo sapiens (Human), UniProt Q6V1X1). As to the kind of experiment: DPP8 enzyme inhibition, IC50 measurement (Ala-Pro-pNA release). As for the experimental part:
(§1) IC50 measurements. […] The Magellan software was used to process the data, which was then fitted using a non-linear fit model in GraFit 7. […] As a blank, the assay buffer was used instead of the enzyme. Screening measurements were carried out in duplo and IC50 values were determined in triplo with at least eight different inhibitor concentrations as described by Van Goethem et al.

Experiment [2] concerns the target DPP9 (Homo sapiens (Human), UniProt Q86TI2). As to the kind of experiment: DPP9 enzyme inhibition, IC50 measurement (Ala-Pro-pNA release). The settings on record: for SI DPP9/8 / SI DPP9/DPP8: selectivity index; for SI DPP9/8: DPP8 IC50 over DPP9 IC50. The procedure:
DPP4 was purified from human seminal plasma as described previously.^[3]
as §1

The target in experiment [3] is DPP2 (Homo sapiens (Human), UniProt Q9UHL4). In words: DPP2 enzyme inhibition, IC50 measurement (Lys-Ala-pNA release). The following applies: Table 1; mean ± SD (n = 3). The procedure: as §1
Experiment [4] concerns the target FAP (Homo sapiens (Human), UniProt Q12884). As to the kind of experiment: FAP enzyme inhibition, IC50 measurement (Z-Gly-Pro-AMC release). The settings on record: for IC50: Table 1, mean ± SD (n = 3).
Experiment [5] concerns the target PREP (Homo sapiens (Human), UniProt P48147). As to the kind of experiment: PREP enzyme inhibition, IC50 measurement (N-succinyl-Gly-Pro-AMC release). The following applies: Table 1; mean ± SD (n = 3). As for the experimental part: as §1
Setting [6] is: Table 1, mean ± SD (n = 3), read-out: IC50 DPP8.
Setting [7] is: Table 1, mean ± SD (n = 3), read-out: IC50 DPP9.
[8] abbreviates: Table 3, mean ± SD (n = 3), read-out: DPP8 IC50 ± SD.
Where [9] appears, read: Table 3, mean ± SD (n = 3), read-out: DPP9 IC50 ± SD.
Where [10] appears, read: Table 4, standard method, read-out: IC50 DPP8.
Where [11] appears, read: Table 4, standard method, read-out: IC50 DPP9.

Where two headings read alike, the source gives them in different places.

Chain of DPP8 (Q6V1X1 whole entry): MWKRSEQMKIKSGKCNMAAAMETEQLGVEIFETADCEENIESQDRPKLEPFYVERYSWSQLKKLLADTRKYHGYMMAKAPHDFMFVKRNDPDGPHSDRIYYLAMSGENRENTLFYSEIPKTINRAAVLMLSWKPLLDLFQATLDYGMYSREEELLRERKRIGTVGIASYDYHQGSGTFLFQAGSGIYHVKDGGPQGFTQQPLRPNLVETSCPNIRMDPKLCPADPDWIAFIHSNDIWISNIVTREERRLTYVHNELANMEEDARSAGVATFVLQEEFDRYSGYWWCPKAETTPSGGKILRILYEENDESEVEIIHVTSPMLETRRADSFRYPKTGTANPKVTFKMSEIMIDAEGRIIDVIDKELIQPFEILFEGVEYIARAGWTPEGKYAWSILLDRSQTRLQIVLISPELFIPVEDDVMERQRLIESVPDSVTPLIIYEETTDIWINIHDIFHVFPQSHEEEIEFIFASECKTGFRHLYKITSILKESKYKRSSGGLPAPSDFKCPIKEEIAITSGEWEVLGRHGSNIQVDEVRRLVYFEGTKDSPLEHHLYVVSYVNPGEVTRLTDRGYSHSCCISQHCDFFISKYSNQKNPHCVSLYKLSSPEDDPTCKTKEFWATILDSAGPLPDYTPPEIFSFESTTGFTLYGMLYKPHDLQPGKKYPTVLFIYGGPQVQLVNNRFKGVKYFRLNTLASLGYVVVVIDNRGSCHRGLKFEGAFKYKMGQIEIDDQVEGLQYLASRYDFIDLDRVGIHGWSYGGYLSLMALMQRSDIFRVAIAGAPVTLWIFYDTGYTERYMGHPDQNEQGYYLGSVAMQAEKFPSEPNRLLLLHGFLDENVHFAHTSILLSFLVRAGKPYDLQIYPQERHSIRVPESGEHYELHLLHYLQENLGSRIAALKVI
Chain of PREP (P48147 whole entry): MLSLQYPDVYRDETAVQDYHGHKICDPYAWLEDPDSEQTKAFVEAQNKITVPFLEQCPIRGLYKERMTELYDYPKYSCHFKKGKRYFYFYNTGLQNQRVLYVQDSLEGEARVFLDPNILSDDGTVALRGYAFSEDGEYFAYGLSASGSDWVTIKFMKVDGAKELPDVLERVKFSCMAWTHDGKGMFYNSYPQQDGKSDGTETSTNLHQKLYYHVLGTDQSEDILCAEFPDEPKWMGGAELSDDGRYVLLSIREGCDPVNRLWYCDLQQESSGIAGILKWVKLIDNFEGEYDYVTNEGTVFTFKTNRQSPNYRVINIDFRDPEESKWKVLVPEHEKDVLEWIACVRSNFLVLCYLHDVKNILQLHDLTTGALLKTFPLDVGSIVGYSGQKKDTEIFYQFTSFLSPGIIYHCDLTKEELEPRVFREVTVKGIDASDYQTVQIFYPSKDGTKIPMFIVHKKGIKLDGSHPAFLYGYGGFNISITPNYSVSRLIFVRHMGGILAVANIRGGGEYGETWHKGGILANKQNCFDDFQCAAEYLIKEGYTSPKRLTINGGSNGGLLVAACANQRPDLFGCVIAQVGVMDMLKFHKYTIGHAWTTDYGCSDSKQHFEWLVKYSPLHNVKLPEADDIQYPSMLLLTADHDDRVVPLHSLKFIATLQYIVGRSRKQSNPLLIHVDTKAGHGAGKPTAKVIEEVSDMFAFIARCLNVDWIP
Chain of DPP9 (Q86TI2 whole entry): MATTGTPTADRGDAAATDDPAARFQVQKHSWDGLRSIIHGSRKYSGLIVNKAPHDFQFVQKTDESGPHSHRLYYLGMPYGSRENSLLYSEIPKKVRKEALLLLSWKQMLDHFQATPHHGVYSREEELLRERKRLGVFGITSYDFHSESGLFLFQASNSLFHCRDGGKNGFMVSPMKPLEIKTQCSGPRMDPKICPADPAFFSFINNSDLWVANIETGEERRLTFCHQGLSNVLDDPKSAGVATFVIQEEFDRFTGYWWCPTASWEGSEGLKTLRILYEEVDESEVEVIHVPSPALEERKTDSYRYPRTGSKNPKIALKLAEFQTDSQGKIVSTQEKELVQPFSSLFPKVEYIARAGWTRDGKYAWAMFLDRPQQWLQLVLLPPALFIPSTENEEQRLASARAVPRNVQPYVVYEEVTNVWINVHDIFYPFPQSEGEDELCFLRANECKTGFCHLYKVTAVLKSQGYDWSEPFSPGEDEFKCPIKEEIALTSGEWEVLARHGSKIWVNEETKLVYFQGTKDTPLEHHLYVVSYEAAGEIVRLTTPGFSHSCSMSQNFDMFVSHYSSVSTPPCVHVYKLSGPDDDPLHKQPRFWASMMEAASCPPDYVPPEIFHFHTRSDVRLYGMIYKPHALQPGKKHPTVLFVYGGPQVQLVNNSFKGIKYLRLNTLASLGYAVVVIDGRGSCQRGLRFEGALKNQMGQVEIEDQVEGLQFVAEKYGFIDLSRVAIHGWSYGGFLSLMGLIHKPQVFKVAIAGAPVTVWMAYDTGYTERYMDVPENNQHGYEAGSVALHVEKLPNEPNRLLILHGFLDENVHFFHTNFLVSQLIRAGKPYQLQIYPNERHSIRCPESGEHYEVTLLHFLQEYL
Chain of FAP (Q12884 27-760): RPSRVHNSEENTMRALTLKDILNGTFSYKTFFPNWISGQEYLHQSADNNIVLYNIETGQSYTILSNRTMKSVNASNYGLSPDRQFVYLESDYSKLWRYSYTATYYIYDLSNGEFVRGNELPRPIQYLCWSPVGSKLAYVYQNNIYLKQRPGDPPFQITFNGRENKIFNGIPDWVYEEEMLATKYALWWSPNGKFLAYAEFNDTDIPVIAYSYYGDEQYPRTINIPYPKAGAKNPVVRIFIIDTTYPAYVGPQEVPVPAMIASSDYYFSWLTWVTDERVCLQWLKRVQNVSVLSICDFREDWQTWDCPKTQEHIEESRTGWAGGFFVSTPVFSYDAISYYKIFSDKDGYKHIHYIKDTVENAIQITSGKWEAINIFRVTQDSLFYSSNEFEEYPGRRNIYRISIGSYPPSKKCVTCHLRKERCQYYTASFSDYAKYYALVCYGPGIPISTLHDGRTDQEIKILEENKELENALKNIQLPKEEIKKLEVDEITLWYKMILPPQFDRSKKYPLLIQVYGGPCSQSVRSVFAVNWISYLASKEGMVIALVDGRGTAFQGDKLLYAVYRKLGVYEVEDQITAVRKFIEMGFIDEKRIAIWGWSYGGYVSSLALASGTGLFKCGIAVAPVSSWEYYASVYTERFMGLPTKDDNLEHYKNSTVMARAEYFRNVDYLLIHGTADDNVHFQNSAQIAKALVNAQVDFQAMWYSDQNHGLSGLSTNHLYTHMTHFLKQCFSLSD

For `N#C[C@@H]1CCCN1C(=O)CNC12CC3CC(C1)CC(OCc1ccccc1)(C3)C2` [Compound 5a, (S)-1-((-3-(benzyloxy)adamantan-1-yl)glycyl)pyrrolidine-2-carbonitrile], the IC50 in experiment [1] (setting [6]) was 1320 ± 200 nM; in experiment [3] it was > 5000 nM; in experiment [4], 4000 ± 4000 nM; in experiment [5], 4300 ± 300 nM. Besides, the “SI DPP9/8” value in experiment [2] (Table 1) is recorded as 9.9. In addition, in experiment [4] (at the tested concentrations), the “inhibition of FAP” value is recorded as “micromolar inhibitor”.

With `CCCCOC12CC3CC(CC(NCC(=O)N4C[C@@H](N=[N+]=[N-])C[C@H]4C#N)(C3)C1)C2` [Compound 5g, (2S,4S)-4-azido-1-((3-butoxyadamantan-1-yl)glycyl)pyrrolidine-2-carbonitrile], the 50% inhibitory concentration (IC50) is 270 ± 60 nM in experiment [1] (setting [6]); 35 ± 2 nM in experiment [2] (setting [7]); > 5000 nM in experiment [3]; > 10000 nM in experiment [4]; > 10000 nM in experiment [5]. Also, in experiment [2] (Table 1, selectivity index DPP9/4), the “SI DPP9/4” value worked out at 3.8. Further, the “SI DPP9/8” value in experiment [2] (Table 1) was determined as 7.8.

Take `CCCCOC12CC3CC(CC(NCC(=O)N4C[C@H]5C[C@H]5[C@H]4C#N)(C3)C1)C2` [Compound 5o, (1R,2S,5S)-3-((-3-butoxyadamantan-1-yl)glycyl)-3-azabicyclo[3.1.0]hexane-2-carbonitrile]: the IC50 was > 10000 nM in experiment [1] (setting [6]); 990 ± 400 nM in experiment [2] (setting [7]); > 5000 nM in experiment [3]; > 10000 nM in experiment [4]; > 10000 nM in experiment [5].

As for `O=C(CCCCC1SCC2NC(=O)NC21)NCCOCCOCCOCCNC(=O)NC12CC3CC(CC(NCC(=O)N4Cc5ccc(F)cc5C4)(C3)C1)C2` (stereo not drawn) [Compound 75, N-(1-((3-((2-(5-fluoroisoindolin-2-yl)-2-oxoethyl)amino)adamantan-1-yl)amino)-1-oxo-5,8,11-trioxa-2-azatridecan-13-yl)-5-(2-oxohexahydro-1H-thieno[3,4-d]imidazol-4-yl)pentanamide], the half-inhibitory concentration (IC50) in experiment [1] (setting [8]) amounted to 495 ± 72 nM; in experiment [2] (setting [9]), 43 nM. In experiment [2] (Table 3), the “SI DPP9/8” value is 12.

Consider `O=C1CCC(N2C(=O)c3cccc(NCCOCCOC(=O)NC45CC6CC(CC(NCC(=O)N7Cc8ccc(F)cc8C7)(C6)C4)C5)c3C2=O)C(=O)N1` (stereo not drawn) [Compound 76, 2-(2-((2-(2,6-Dioxopiperidin-3-yl)-1,3-dioxoisoindolin-4-yl)amino)ethoxy)ethyl (3-((2-(5-fluoroisoindolin-2-yl)-2-oxoethyl)amino)adamantan-1-yl)carbamate], for which the IC50 amounted to 8 nM in experiment [1] (setting [8]) and 1.4 nM in experiment [2] (setting [9]). Also, the “SI DPP9/8” value in experiment [2] (Table 3) is reported as 6.

On to `O=C1CCC(N2C(=O)c3cccc(NCCOCCNC(=O)NC45CC6CC(CC(NCC(=O)N7Cc8ccc(F)cc8C7)(C6)C4)C5)c3C2=O)C(=O)N1` (stereo not drawn) [Compound 77, 1-(2-(2-((2-(2,6-Dioxopiperidin-3-yl)-1,3-dioxoisoindolin-4-yl)amino)ethoxy)ethyl)-3-(3-((2-(5-fluoroisoindolin-2-yl)-2-oxoethyl)amino)adamantan-1-yl)urea], for which the results for the concentration for half-maximal inhibition (IC50) in experiment [1] (setting [8]) and in experiment [2] (setting [9]) were 21 nM and 2.4 nM, respectively. For the same compound, the “SI DPP9/8” value in experiment [2] (Table 3) was 9.

As for `O=C1CCC(N2C(=O)c3cccc(NCCOCCOCCOCCNC(=O)NC45CC6CC(CC(NCC(=O)N7Cc8ccc(F)cc8C7)(C6)C4)C5)c3C2=O)C(=O)N1` (stereo not drawn) [Compound 78, 1-(2-(2-(2-(2-((2-(2,6-Dioxopiperidin-3-yl)-1,3-dioxoisoindolin-4-yl)amino)ethoxy)ethoxy)ethoxy)ethyl)-3-(3-((2-(5-fluoroisoindolin-2-yl)-2-oxoethyl)amino)adamantan-1-yl)urea], the figures for the IC50 in experiment [1] (setting [8]) and in experiment [2] (setting [9]) were 79 nM and 12 nM, respectively. For the same compound, in experiment [2] (Table 3), the “SI DPP9/8” value is 7.

`Cc1ccc2c(c1)CN(C(=O)CNC13CC4CC(C1)CC(NC(=O)OC(C)(C)C)(C4)C3)C2` [Compound 84, tert-butyl ((1s,3r,5R,7S)-3-((2-(5-methylisoindolin-2-yl)-2-oxoethyl)amino)adamantan-1-yl)carbamate]: the IC50 in experiment [1] (setting [10]) amounted to 4710 ± 444 nM; in experiment [2] (setting [11]) it was 208 ± 48 nM. The “SI DPP9/DPP8” value in experiment [2] (Table 4) came to 23.

On to `CC(C)(C)NC(=O)NC12CC3CC(CC(NCC(=O)N4Cc5cc(F)c(F)cc5C4)(C3)C1)C2.Cl` [Compound 85, 1-(tert-butyl)-3-((1s,3r,5R,7S)-3-((2-(5,6-difluoroisoindolin-2-yl)-2-oxoethyl)amino)adamantan-1-yl)urea hydrochloride], for which the IC50 in experiment [1] (setting [10]) was 1330 ± 97 nM; in experiment [2] (setting [11]), 32 nM. Also, the “SI DPP9/DPP8” value in experiment [2] (Table 4) was 41.

As for `CC(C)(C)CC(=O)NC12CC3CC(CC(NCC(=O)N4Cc5cc(F)c(F)cc5C4)(C3)C1)C2` [Compound 86, N-((1s,3r,5R,7S)-3-((2-(5,6-difluoroisoindolin-2-yl)-2-oxoethyl)amino)adamantan-1-yl)-3,3-dimethylbutanamide], the concentration for half-maximal inhibition (IC50) in experiment [1] (setting [10]) turned out to be 1300 ± 127 nM; in experiment [2] (setting [11]) it was 58 nM. Also, the “SI DPP9/DPP8” value in experiment [2] (Table 4) is 22.

For `Cl.O=C(NC12CC3CC(CC(NCC(=O)N4Cc5ccc(F)cc5C4)(C3)C1)C2)c1ccc(-c2cccnc2)cc1` [Compound 88, N-((1s,3r,5R,7S)-3-((2-(5-fluoroisoindolin-2-yl)-2-oxoethyl)amino)adamantan-1-yl)-4-(pyridin-3-yl)benzamide hydrochloride], the IC50 stood at 51 ± 25 nM in experiment [1] (setting [10]) and 2 nM in experiment [2] (setting [11]). Besides, the “SI DPP9/DPP8” value in experiment [2] (Table 4) is on record as 24.

With `Cl.O=C(NC12CC3CC(CC(NCC(=O)N4Cc5ccc(F)cc5C4)(C3)C1)C2)c1ccc(-c2ccccn2)cc1` [Compound 90, N-((1s,3r,5R,7S)-3-((2-(5-fluoroisoindolin-2-yl)-2-oxoethyl)amino)adamantan-1-yl)-4-(pyridin-2-yl)benzamide hydrochloride], the IC50 came to 127 ± 23 nM in experiment [1] (setting [10]) and 3 nM in experiment [2] (setting [11]). Further, the “SI DPP9/DPP8” value in experiment [2] (Table 4) amounted to 37.

With `Cl.O=C(NC12CC3CC(CC(NCC(=O)N4Cc5ccc(F)cc5C4)(C3)C1)C2)c1ccc(-c2ccncc2)cc1` [Compound 91, N-((1s,3r,5R,7S)-3-((2-(5-fluoroisoindolin-2-yl)-2-oxoethyl)amino)adamantan-1-yl)-4-(pyridin-4-yl)benzamide hydrochloride], the IC50 in experiment [1] (setting [10]) was 102 ± 28 nM; in experiment [2] (setting [11]), 8 nM. Besides, the “SI DPP9/DPP8” value in experiment [2] (Table 4) is 12.

For the compound `Cl.O=C(NC12CC3CC(CC(NCC(=O)N4Cc5ccc(F)cc5C4)(C3)C1)C2)c1ccc(F)cc1` [Compound 95, 4-fluoro-N-((1s,3r,5R,7S)-3-((2-(5-fluoroisoindolin-2-yl)-2-oxoethyl)amino)adamantan-1-yl)benzamide hydrochloride], the values for the IC50 in experiment [1] (setting [10]) and in experiment [2] (setting [11]) were 295 ± 15 nM and 42 nM, respectively. Also, in experiment [2] (Table 4), the “SI DPP9/DPP8” value is on record as 7.

Turning to `Cl.O=C(NC12CC3CC(CC(NCC(=O)N4Cc5ccc(F)cc5C4)(C3)C1)C2)c1cccnc1` [Compound 98, N-((1s,3r,5R,7S)-3-((2-(5-fluoroisoindolin-2-yl)-2-oxoethyl)amino)adamantan-1-yl)nicotinamide hydrochloride], the results for the concentration for half-maximal inhibition (IC50) in experiment [1] (setting [10]) and in experiment [2] (setting [11]) were 270 ± 33 nM and 88 ± 23 nM, respectively. Moreover, the “SI DPP9/DPP8” value in experiment [2] (Table 4) turned out to be 3.

For `Cc1ncsc1-c1ccc(CNC(=O)[C@@H]2C[C@@H](O)CN2C(=O)[C@@H](NC(=O)CCOCCOCCOCCC(=O)NC23CC4CC(CC(NCC(=O)N5Cc6ccc(F)cc6C5)(C4)C2)C3)C(C)(C)C)cc1` [Compound 124, (2S,4R)-1-((2S)-2-(tert-butyl)-16-((3-((2-(5-fluoroisoindolin-2-yl)-2-oxoethyl)amino)adamantan-1-yl)amino)-4,16-dioxo-7,10,13-trioxa-3-azahexadecanoyl)-4-hydroxy-N-(4-(4-methylthiazol-5-yl)benzyl)pyrrolidine-2-carboxamide], the results for the concentration for half-maximal inhibition (IC50) in experiment [1] (setting [10]) and in experiment [2] (setting [11]) were 94 ± 25 nM and 20 nM, respectively. Also, the “SI DPP9/DPP8” value in experiment [2] (Table 4) was 5.

Turning to “Lithium (((3-((2-(5-fluoroisoindolin-2-yl)-2-oxoethyl)amino)adamantan-1-yl)oxy)carbonyl)glycine [Compound 54]”, the IC50 came out at 243 ± 46.4 nM in experiment [1] (setting [8]) and 8.88 nM in experiment [2] (setting [9]). The “SI DPP9/8” value in experiment [2] (Table 3) turned out to be 27.4.

As to “Methyl (((3-((2-(5-fluoroisoindolin-2-yl)-2-oxoethyl)amino)adamantan-1-yl)oxy)carbonyl)-L-isoleucinate [Compound 57]”, the IC50 in experiment [1] (setting [8]) was found to be 2180 ± 345 nM; in experiment [2] (setting [9]), 107 nM. For the same compound, in experiment [2] (Table 3), the “SI DPP9/8” value is given as 20.4.

Consider “N-(3-((2-(isoindolin-2-yl)-2-oxoethyl)amino)adamantan-1-yl)adamantane-1-carboxamide [Compound 43]”, for which the IC50 stood at 5700 ± 1100 nM in experiment [1] (setting [8]) and 186 ± 53.6 nM in experiment [2] (setting [9]). In experiment [2] (Table 3), the “SI DPP9/8” value is 30.6.

In the case of “N-(-3-((2-(5-fluoroisoindolin-2-yl)-2-oxoethyl)amino)adamantan-1-yl)adamantane-1-carboxamide [Compound 45]”, the figures for the IC50 in experiment [1] (setting [8]) and in experiment [2] (setting [9]) were 1180 ± 138 nM and 38 ± 10 nM, respectively. The “SI DPP9/8” value in experiment [2] (Table 3) turned out to be 31.

As to “lithium (((3-((2-(5-fluoroisoindolin-2-yl)-2-oxoethyl)amino)adamantan-1-yl)oxy)carbonyl)-L-tryptophanate [Compound 56]”, the IC50 in experiment [1] (setting [8]) was 2080 ± 184 nM; in experiment [2] (setting [9]) it was 94.6 nM. The “SI DPP9/8” value in experiment [2] (Table 3) is 22.0.
